The values that follow come from patent US10316039B2, “P2X3 and/or P2X2/3 compounds and methods” (Asana Biosciences, LLC, priority 2013, dated 2019).

Where only a bound is given, the exact number is not on record here.

For assay [1], the target named is T1, P2X2/3 (Homo sapiens, UniProt P56373+Q9UBL9).
T1 sequence (Q9UBL9 1-471): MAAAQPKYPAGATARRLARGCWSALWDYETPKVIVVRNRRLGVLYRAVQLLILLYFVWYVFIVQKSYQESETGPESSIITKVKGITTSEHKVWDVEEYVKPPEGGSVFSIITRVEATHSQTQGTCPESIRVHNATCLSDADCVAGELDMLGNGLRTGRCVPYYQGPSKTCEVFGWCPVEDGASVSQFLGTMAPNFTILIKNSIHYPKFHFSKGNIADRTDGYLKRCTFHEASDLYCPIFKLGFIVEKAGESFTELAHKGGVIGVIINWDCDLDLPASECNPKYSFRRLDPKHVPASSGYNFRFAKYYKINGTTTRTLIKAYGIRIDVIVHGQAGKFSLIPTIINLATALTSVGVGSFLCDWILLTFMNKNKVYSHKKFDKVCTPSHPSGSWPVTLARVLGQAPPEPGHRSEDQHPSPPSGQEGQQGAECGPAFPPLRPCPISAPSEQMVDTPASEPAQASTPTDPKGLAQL
T1 sequence (P56373 1-397): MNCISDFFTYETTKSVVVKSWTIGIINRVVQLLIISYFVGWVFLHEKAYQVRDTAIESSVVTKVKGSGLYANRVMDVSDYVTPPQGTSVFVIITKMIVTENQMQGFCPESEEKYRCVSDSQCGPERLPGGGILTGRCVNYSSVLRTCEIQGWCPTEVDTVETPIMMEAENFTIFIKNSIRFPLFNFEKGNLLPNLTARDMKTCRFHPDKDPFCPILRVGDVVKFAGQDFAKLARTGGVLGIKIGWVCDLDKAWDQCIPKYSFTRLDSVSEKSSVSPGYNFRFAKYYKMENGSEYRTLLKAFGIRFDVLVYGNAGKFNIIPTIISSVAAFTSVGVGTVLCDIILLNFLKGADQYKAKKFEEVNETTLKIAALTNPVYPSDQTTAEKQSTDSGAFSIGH
In words: P2X2/3 FLIPR intracellular calcium assay. Format: cell-based. Particulars: agonist at EC75, species (human or rat) not given. The source says: The FLIPR® assay utilizes cells which express human or rat P2X3 or P2X2/3 receptors. Recombinant cells expressing hP2X3 (Cat#6188) and hP2X2/3 (Cat#6179) were procured from Chantest Corp. Rat P2X2 (NCBI Accession No: U14414) was amplified by PCR from PC12 cDNA (a rat adrenal medulla cell line). The PCR product obtained containing the protein coding sequence of rat P2X2 was cloned into EcoRV-digested and dephosphorylated vector pIRES-puro3 within the multiple cloning site (MCS). See, FIG. 1A.
(§1) Transfection was carried out using super-coiled constructs (purified using QIAGEN kit) in antibiotic free, serum free DMEM using Lipofectamine® 2000 (Invitrogen) transfection agent. The DNA constructs rat P2X2 in pIRES-Puro3 and rat P2X3 in pCDNA5/TO were co-transfected into TRex293 cells in order to generate the rP2X2/3 stable line. 50 μg/mL hygromycin (Invitrogen) and 0.5 μg/mL puromycin (Fermentek) were used for selection of stable clones of rP2X2/3. Rat P2X3 in pCDNA5/TO DNA construct was transfected to CHO-TRex cells to generate the rP2×3 stable line and 500 μg/mL hygromycin (Invitrogen) was used as selection antibiotic. Transfected stable colonies were then functionally verified and robust clones suitable for assay were clonally purified through dilutions.
(§2) Cryo-vial containing 6×10^6 cells (human P2X3-HEK/human P2X2/3-TRex293/rat P2X2/3-TRex293/rat P2X3 TRex-CHO) was thawed in a 37° C. water bath. Cells were suspended in 20 mL of respective cell plating media (See annexure for composition) in a 50 mL centrifuge tube. The cell viability was checked with the help of Trypan Blue dye. Upon washing, cells were plated in a black 384-well clear bottomed, sterile poly-D-lysine coated plate such that, each well contained 10,000 cells (15,000/well for hP2X3) in 30 μL cell plating media. The plate was incubated in a 5% CO2 incubator at 37° C. for 24 h.
(§3) The next day, prior to the assay, the cell plating media was removed from each well by decanting and gentle tapping. Thirty μL of FLIPR Calcium 4 dye solution was added to each well. The plate was incubated at 37° C. for 45 min (60 min for hP2X3). The plate was next equilibrated at room temperature for 15 minutes before placing it in a 384 well FLIPR for the assay.
Compounds were dissolved in DMSO and serially diluted following 11 point half log (3.16 fold) dilution with a starting concentration of 2 mM. Dilutions were mixed with assay buffer just before performing the assay.
(§4) Compounds were added to the respective wells of the assay-ready cell plate with the help of the FLIPR and fluorescence readings were captured for 5 min to observe any possible agonistic property of the compounds. The plate was then incubated at room temperature for 15 min. The cells were stimulated with respective agonist EC75 concentration and the fluorescence readings were captured for another 5 min by FLIPR. The difference in fluorescence readings in presence of the compounds were compared with that of the control wells (wells having no compound) to calculate the inhibitory potency of the compounds. The IC50 values of the compounds were determined using the Graph pad Prism software.
(ii) Cell Plating Media for hP2X3-HEK and hP2X2/3-TRex293 Cells • DMEM/F12 (1:1) HAM media (Invitrogen; Cat#11039) • 1×NEAA (Invitrogen; Cat#11140) • 25 mM HEPES (Invitrogen; Cat#15630) • 1 mM sodium pyruvate (Invitrogen; Cat#11360) • 10% tetracycline negative FBS (PAA; Cat# A15-209) • 1 μg/mL doxycycline (Clontech; Cat#63131) [for hP2X2/3-TRex293 cells only]
(iii) Cell Plating Media for rP2X2/3-TRex293 Cells • DMEM media (Invitrogen; Cat#11965) • 25 mM HEPES (Invitrogen; Cat#15630) • 10% tetracycline negative FBS (PAA; Cat# A15-209) • 1 μg/mL Doxycycline (Clontech; Cat#63131)
(v) Assay Buffer Composition • HBSS (Invitrogen Cat#14025) • 20 mM HEPES (Invitrogen Cat#15630) • 0.01% F127 (Sigma Cat# P2443) • 1.8 mM CaCl2 (Sigma Cat# C5080) • pH adjusted to 7.4 […]
(In general: A change in cytosolic calcium serves as a functional read-out for many receptors and channels.)

The target of assay [2] is T2, P2X3 (UniProt P56373).
T2 sequence (P56373 1-397): T1 sequence (P56373 1-397)
In words: P2X3 FLIPR intracellular calcium assay. Format: cell-based. Particulars: agonist at EC75, species (human or rat) not given.
Text: The FLIPR® assay utilizes cells which express human or rat P2X3 or P2X2/3 receptors. […] The PCR product obtained containing the protein coding sequence of rat P2X2 was cloned into EcoRV-digested and dephosphorylated vector pIRES-puro3 within the multiple cloning site (MCS). See, FIG. 1A.
Rat P2X3 (NCBI Accession No: X91167) was amplified by PCR from rat brain cDNA. The PCR product obtained containing the protein coding sequence of rat P2X3 was cloned into EcoRV-digested and dephosphorylated vector pCDNA-Hygro within the multiple cloning site (MCS) (FIG. 1B). Rat P2X3 cloned into pcDNA-Hygro was then subcloned into pcDNA-5/TO at HindIII (5′) and XhoI (3′) sites within the multiple cloning site (MCS) of the vector (FIG. 1C).
as §1, §2, §3
Dilutions were mixed with assay buffer just before performing the assay.
as §4
(vi) Dye Solution Composition • 1×FLIPR Calcium 4 dye in assay buffer (Molecular devices Cat# R8141) • 1.8 mM Probenecid (Sigma Cat# P8761) • pH adjusted to 7.4

Broadly, the IC50 is the midpoint of a concentration-inhibition curve. Consider `Cc1ccc(CNC(=O)c2cc(N3CCN(C(N)=O)CC3)c3ncc(-c4ccc(C)s4)n3c2)cn1` [Example 13, 8-(4-Carbamoylpiperazin-1-yl)-N-((6-methylpyridin-3-yl)methyl)-3-(5-methylthiophen-2-yl)imidazo[1,2-a]pyridine-6-carboxamide], for which the figures for the IC50 in assay [1] and in assay [2] were 100 to 1000 nM and more than 10000 nM, respectively.
As for `Cc1ccc(-c2cnc3c(-n4nncc4C(F)F)cc(C(=O)N[C@@H](C)c4nnco4)cn23)s1` [Example 14, (S)—N-(1-(1,3,4-Oxadiazol-2-yl)ethyl)-8-(5-(difluoromethyl)-1H-1,2,3-triazol-1-yl)-3-(5-methylthiophen-2-yl)imidazo[1,2-a]pyridine-6-carboxamide], the IC50 lay within 100 to 1000 nM in assay [1] and 1 to 100 nM in assay [2].
Regarding `Cc1ccccc1-c1cnc2c(N3CCC(C)CC3)cc(C(=O)N[C@@H](C)c3nnc[nH]3)cn12` [Example 15, (S)—N-(1-(4H-1,2,4-Triazol-3-yl)ethyl)-8-(4-methylpiperidin-1-yl)-3-(o-tolyl)imidazo[1,2-a]pyridine-6-carboxamide], the IC50 in assay [1] is 1000 to 10000 nM; in assay [2], 100 to 1000 nM.
For the compound `Cc1ccc(CNC(=O)c2cc(-n3nnnc3C3CC3)c3ncc(-c4ccc(C)s4)n3c2)cn1` [Example 16, 8-(5-Cyclopropyl-1H-tetrazol-1-yl)-N-((6-methylpyridin-3-yl)methyl)-3-(5-methylthiophen-2-yl)imidazo[1,2-a]pyridine-6-carboxamide], the IC50 was 100 to 1000 nM in assay [1] and more than 10000 nM in assay [2].
On to `Cc1ccc(CNC(=O)c2cc(-n3nnnc3CO)c3ncc(-c4ccc(C)s4)n3c2)cn1` [Example 17, 8-(5-(Hydroxymethyl)-1H-tetrazol-1-yl)-N-((6-methylpyridin-3-yl)methyl)-3-(5-methylthiophen-2-yl)imidazo[1,2-a]pyridine-6-carboxamide], for which the concentration for half-maximal inhibition (IC50) in assay [1] and in assay [2] was 100 to 1000 nM throughout.
On to `Cc1ccc(CNC(=O)c2cc(-n3nnnc3C(F)F)c3ncc(-c4ccc(C)s4)n3c2)cn1` [Example 18, 8-(5-(Difluoromethyl)-1H-tetrazol-1-yl)-N-((6-methylpyridin-3-yl)methyl)-3-(5-methylthiophen-2-yl)imidazo[1,2-a]pyridine-6-carboxamide], for which the IC50 in assay [1] and in assay [2] was 1 to 100 nM throughout.
As to `Cc1ccc(-c2cnc3c(N(C)C(=O)C(C)C)cc(C(=O)N[C@@H](C)c4nnc[nH]4)cn23)s1` [Example 20, (S)—N-(1-(4H-1,2,4-Triazol-3-yl)ethyl)-8-(N-methylisobutyramido)-3-(5-methylthiophen-2-yl)imidazo[1,2-a]pyridine-6-carboxamide], the half-maximal inhibitory concentration (IC50) in assay [1] was 100 to 1000 nM; in assay [2], 1 to 100 nM.
Turning to `CCc1nnc(-c2cc(C(=O)NCc3ccc(C)nc3)cn3c(-c4ccc(C)s4)cnc23)o1` [Example 21], the half-maximal inhibitory concentration (IC50) in assay [1] was 100 to 1000 nM; in assay [2], 1 to 100 nM.
Regarding `CCc1cnnn1-c1cc(C(=O)N[C@@H](C)c2nnc[nH]2)cn2c(-c3ccc(C)s3)cnc12` [Example 23], the IC50 lay within 100 to 1000 nM in assay [1] and 1 to 100 nM in assay [2].
Consider `CCc1cnnn1-c1cc(C(=O)NCc2cnc(C)cn2)cn2c(-c3ccc(C)s3)cnc12` [Example 24], for which the IC50 in assay [1] and in assay [2] was 1 to 100 nM in each case.
Turning to `Cc1ccc(CNC(=O)c2cc(-n3nncc3C3CC3)c3ncc(-c4ccc(C)s4)n3c2)cn1` [Example 25], the half-inhibitory concentration (IC50) in assay [1] and in assay [2] was 1 to 100 nM throughout.
Regarding `Cc1ccc(-c2cnc3c(-n4nncc4C(F)(F)F)cc(C(=O)N[C@@H](C)c4nnc[nH]4)cn23)s1` [Example 26], the IC50 in assay [1] and in assay [2] was 1 to 100 nM in each case.
As to `Cc1ccc(CNC(=O)c2cc(-n3nncc3C)c3ncc(-c4ccc(C)s4)n3c2)cn1` [Example 28], the IC50 in assay [1] and in assay [2] was 1 to 100 nM throughout.
Consider `Cc1ccc(-c2cnc3c(-n4nncc4C)cc(C(=O)N[C@@H](C)c4nnc[nH]4)cn23)s1` [Example 29], for which the IC50 was in the range of 100 to 1000 nM in assay [1] and 1 to 100 nM in assay [2].
